Source: ChEMBL document CHEMBL1201862, “PubChem BioAssay data set” (2004)
Active and inactive are the calls of the source.

Legend:
[1] = target: UDP-galactopyranose mutase (Mycobacterium tuberculosis, UniProt P9WIQ1); test: Inhibitors of Mycobacterium tuberculosis UDP-galactopyranose mutase (UGM) enzyme Measured in Biochemical System Using Plate Reader - 2105-02_Inhibitor_Dose_CherryPick_Activity. [Related pubchem assays (depositor defined):AID504439]
[2] = target: T1, Zinc finger protein mex-5 (Caenorhabditis elegans, UniProt Q9XUB2); test: MEX-5/TCR-2 RNA interaction inhibitors, dose response, biochemical, C. elegans, fluorescence polarization (AID 1960)
T1 sequence (Q9XUB2 whole entry): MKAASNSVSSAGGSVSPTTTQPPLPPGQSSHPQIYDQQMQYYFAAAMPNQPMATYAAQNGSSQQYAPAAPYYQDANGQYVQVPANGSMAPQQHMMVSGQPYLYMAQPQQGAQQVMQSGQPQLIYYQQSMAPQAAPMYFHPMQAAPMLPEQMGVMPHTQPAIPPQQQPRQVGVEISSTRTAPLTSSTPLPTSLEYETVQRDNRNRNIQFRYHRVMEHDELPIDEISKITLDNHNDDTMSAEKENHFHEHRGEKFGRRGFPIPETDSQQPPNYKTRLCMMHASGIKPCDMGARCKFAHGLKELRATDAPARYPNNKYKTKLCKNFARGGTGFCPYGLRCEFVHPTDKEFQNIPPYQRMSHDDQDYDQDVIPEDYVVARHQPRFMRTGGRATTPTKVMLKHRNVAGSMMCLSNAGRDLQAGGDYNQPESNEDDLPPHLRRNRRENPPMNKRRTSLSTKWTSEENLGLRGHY

[3] = target: T2, RNA-binding protein pos-1 (Caenorhabditis elegans, UniProt G5EF15); test: inhibitors of POS-1/mex-3 RNA binding, dose response, biochemical, fluorescence polarization (AID 1964);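 note: purified POS-1 fused to maltose binding protein made in E. coli; potency of compounds blocking POS-1 binding to fluorescent RNA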
T2 sequence (G5EF15 whole entry): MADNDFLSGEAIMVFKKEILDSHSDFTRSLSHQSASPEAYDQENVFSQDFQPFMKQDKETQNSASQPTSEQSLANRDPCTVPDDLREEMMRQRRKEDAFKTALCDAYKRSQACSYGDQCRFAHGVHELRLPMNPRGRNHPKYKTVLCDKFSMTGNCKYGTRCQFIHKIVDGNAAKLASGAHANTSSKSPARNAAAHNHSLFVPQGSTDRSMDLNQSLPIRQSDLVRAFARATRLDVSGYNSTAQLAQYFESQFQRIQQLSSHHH

[4] = target: T3, Carboxy-terminal domain RNA polymerase II polypeptide A small phosphatase 1 (Homo sapiens, UniProt Q9GZU7); test: inhibitors of CTDSP1, concentration-response testing, biochemical assay, absorbance-based, actives from ultra-high-throughput screening (AID 540297); assay type: functional
T3 sequence (Q9GZU7 whole entry): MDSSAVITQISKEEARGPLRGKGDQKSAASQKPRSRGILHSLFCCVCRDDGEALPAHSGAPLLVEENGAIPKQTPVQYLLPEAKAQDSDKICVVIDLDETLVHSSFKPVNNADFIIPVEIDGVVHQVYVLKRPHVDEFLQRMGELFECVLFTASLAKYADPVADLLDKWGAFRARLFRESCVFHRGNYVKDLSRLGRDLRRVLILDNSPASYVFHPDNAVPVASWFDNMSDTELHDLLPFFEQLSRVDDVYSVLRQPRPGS

[5] = target: Beta-adrenergic receptor kinase 1 (Homo sapiens, UniProt P25098); test: GRK2 inhibitors displacing RNA aptamer, dose response, biochemical, flow cytometry beads, FAM-aptamer, powder set 1 (AID 588720)
Sequence of Beta-adrenergic receptor kinase 1 (P25098 whole entry): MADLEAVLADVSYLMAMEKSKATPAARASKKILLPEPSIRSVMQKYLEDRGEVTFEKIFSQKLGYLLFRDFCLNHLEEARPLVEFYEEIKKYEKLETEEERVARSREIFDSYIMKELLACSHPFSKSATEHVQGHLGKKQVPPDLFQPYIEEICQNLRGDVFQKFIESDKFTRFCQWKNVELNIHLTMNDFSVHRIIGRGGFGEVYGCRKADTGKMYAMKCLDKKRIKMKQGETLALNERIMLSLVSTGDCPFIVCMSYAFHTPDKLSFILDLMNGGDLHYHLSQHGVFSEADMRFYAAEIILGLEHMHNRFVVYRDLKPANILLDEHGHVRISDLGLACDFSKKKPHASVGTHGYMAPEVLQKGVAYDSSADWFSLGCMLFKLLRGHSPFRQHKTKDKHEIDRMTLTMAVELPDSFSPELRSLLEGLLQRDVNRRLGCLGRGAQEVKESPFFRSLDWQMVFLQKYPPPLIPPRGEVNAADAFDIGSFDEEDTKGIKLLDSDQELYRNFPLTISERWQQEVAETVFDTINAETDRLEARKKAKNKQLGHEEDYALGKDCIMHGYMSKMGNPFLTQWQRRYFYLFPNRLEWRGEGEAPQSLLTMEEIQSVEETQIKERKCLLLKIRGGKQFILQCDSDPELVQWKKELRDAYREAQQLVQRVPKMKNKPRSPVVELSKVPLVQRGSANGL

[6] = target: T4, Histone-lysine N-methyltransferase NSD2 (Homo sapiens, UniProt O96028); assay type: biochemical
T4 sequence (O96028 whole entry): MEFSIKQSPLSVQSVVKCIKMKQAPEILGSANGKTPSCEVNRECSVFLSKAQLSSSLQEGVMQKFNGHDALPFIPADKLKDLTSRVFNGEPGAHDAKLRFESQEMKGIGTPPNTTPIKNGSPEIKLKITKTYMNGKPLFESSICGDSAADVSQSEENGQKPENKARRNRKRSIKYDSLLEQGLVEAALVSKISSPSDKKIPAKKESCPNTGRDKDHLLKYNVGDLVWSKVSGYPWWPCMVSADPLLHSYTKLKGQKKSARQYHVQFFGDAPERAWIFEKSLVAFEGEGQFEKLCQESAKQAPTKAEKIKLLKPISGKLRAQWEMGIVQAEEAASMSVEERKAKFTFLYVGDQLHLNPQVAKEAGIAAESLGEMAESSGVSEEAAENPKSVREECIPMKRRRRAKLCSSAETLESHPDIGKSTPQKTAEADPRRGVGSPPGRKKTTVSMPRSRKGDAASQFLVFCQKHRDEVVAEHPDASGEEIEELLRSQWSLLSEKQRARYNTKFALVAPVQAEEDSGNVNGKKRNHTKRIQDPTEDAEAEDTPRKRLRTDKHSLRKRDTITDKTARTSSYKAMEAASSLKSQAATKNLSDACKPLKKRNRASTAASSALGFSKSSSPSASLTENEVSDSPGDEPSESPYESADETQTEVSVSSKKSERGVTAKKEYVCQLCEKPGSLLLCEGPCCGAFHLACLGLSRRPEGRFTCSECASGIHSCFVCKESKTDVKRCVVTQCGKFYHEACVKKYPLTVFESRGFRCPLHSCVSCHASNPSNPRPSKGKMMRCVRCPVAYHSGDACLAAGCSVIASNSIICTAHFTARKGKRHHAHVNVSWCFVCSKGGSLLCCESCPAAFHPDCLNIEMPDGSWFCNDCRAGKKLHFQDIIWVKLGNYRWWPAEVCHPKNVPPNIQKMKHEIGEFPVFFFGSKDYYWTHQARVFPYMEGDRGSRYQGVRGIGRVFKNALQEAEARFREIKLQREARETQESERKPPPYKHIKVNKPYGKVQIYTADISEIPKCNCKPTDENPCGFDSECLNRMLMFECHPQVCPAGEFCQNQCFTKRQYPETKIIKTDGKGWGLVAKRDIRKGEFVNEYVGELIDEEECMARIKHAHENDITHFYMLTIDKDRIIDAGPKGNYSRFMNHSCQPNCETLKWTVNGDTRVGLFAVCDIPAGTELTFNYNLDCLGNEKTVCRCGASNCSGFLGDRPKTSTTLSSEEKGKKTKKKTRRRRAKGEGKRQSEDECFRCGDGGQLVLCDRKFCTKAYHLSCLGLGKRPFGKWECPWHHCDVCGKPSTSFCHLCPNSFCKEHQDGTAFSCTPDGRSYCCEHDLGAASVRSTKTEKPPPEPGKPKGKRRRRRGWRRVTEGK

[7] = target: ELAV-like protein 1 (Homo sapiens, UniProt Q15717); test: Identify HuR specific inhibitors.; assay type: functional
Sequence of ELAV-like protein 1 (Q15717 whole entry): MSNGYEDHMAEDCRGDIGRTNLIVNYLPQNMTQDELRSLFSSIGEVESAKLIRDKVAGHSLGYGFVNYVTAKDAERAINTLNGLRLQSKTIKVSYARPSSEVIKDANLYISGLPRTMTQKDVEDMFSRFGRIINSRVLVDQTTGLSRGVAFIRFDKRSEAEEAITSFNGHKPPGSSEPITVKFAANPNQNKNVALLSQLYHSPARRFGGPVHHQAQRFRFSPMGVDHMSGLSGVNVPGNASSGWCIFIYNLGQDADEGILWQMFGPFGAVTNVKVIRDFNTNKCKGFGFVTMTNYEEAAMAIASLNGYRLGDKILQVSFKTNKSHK

[8] = target: T5, Small ubiquitin-related modifier 1 (Homo sapiens, UniProt P63165); test: inhibitors of SUMO1 peptide binding, dose response, biochemical, fluorescence polarization, uHTS hits (AID 624382); assay type: functional; conditions: read-out: IC50_Mean
T5 sequence (P63165 whole entry): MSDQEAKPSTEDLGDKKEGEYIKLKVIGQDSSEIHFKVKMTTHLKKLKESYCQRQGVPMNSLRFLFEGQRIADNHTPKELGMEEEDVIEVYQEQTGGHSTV

[9] = target: RNA-editing ligase 1, mitochondrial (Trypanosoma brucei brucei, UniProt P86926); test: TbREL1 ligase inhibitors, dose response, biochemical, fluorescence, Trypanosoma brucei (AID 1117295); assay type: functional
[10] = target: T5, Small ubiquitin-related modifier 1; test: inhibitors of SUMO1 partner interactions, dose response, biochemical, FRET (AID 624383); assay type: functional; conditions: read-out: IC50_Mean
[11] = tested on: HeLa; test: HeLa cell cytotoxicity, dose response, cytotoxicity control, 24 h, cherry-picked samples (AID 504726); assay type: functional, cell-based; conditions: Homo sapiens;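 note: potency for cytotoxicity as loss of luminescence signal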
[12] = target: T6, Rac GTPase-activating protein 1 (Homo sapiens, UniProt Q9H0H5); test: MgcRacGAP GTPase-activating activity inhibitors, confirmation, biochemical, ADP Hunter fluorescence, primary and confirmatory (AID 624330); assay type: functional
T6 sequence (Q9H0H5 whole entry): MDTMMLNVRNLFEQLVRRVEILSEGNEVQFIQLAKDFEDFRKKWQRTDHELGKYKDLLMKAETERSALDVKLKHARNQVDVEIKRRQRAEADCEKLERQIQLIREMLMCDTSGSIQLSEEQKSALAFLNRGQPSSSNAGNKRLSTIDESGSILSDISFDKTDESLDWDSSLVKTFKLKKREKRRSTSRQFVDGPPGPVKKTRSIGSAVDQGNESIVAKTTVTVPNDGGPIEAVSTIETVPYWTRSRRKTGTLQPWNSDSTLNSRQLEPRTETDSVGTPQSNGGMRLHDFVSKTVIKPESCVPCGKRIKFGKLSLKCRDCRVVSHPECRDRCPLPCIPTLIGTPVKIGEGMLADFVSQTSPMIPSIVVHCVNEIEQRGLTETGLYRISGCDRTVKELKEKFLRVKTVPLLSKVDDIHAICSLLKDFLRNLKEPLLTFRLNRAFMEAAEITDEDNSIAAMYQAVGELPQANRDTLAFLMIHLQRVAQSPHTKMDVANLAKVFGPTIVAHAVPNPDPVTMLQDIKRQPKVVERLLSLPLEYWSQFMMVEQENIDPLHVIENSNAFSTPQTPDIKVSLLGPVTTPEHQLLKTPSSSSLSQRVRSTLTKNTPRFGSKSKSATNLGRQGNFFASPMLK

[13] = target: Glucose-6-phosphate 1-dehydrogenase (Homo sapiens, UniProt P11413); test: human G6PD enzyme inhibitors, dose response, selectivity assay for P. falciparum G6PD inhibitor project, biochemical, fluorescence (AID 504792); assay type: functional
[14] = target: ORF 73 (Human herpesvirus 8, UniProt O40947); test: inhibitors of C-LANA binding to LBS DNA, dose response, biochemical, fluorescence polarization, cherry-picked samples (AID 504725); parameters: species or system Human gammaherpesvirus 8;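 note: fluorescence polarization of a labeled DNA duplex reporting LANA DNA binding; potency is for inhibitors that block LANA binding to the DNA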
[15] = target: Genome polyprotein (dengue virus type 2, UniProt P29990); test: Dengue-2 NS5 methyltransferase inhibitors, primary screen, biochemical, confirmation dose response (AID 588689); assay type: functional
Sequence of Genome polyprotein (P29990 2492-3391 limits assumed): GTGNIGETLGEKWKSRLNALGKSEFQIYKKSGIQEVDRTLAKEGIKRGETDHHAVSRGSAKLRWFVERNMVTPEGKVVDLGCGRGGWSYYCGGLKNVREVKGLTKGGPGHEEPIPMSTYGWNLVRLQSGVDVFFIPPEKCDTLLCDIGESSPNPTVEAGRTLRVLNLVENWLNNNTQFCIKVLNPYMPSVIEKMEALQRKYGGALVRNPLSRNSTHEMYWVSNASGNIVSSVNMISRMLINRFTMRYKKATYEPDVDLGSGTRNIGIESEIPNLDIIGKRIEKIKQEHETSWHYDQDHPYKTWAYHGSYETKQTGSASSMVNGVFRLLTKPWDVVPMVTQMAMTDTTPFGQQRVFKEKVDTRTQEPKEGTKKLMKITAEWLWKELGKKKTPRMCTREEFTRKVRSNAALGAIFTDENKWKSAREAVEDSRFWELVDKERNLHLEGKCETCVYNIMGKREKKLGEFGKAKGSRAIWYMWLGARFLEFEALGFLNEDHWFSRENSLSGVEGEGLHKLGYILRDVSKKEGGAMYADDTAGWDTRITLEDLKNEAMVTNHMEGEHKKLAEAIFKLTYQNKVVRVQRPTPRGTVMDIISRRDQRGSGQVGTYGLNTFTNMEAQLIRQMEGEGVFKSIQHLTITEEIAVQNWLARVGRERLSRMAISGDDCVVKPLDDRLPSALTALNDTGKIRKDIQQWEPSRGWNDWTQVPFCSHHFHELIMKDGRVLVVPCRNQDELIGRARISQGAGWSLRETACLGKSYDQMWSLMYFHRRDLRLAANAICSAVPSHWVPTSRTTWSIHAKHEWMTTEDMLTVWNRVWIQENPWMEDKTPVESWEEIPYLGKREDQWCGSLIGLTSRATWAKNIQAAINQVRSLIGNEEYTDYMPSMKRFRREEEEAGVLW

[16] = target: Keap1/Nrf2 (Homo sapiens, UniProt Q14145); test: Keap1-Nrf2 protein-protein interaction inhibitors, dose response, biochemical, fluorescence polarization, cherry-picked samples (AID 588683)
Sequence of Keap1/Nrf2 (Q16236 whole entry): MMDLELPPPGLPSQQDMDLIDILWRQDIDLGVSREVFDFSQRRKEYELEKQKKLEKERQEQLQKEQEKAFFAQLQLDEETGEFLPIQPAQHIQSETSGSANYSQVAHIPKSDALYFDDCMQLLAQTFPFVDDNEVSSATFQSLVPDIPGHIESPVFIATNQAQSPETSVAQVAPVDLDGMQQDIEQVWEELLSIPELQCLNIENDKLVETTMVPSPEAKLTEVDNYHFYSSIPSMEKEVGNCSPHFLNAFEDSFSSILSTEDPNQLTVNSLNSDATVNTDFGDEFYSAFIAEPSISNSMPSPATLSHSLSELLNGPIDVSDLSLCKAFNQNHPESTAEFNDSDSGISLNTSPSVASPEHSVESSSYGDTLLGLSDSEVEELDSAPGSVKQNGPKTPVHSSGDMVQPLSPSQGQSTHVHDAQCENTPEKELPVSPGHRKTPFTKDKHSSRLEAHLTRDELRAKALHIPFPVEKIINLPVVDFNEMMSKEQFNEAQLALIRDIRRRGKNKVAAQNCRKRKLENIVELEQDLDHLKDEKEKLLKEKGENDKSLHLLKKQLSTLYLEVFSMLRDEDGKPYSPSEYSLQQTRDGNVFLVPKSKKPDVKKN
Sequence of Keap1/Nrf2 (Q14145 whole entry): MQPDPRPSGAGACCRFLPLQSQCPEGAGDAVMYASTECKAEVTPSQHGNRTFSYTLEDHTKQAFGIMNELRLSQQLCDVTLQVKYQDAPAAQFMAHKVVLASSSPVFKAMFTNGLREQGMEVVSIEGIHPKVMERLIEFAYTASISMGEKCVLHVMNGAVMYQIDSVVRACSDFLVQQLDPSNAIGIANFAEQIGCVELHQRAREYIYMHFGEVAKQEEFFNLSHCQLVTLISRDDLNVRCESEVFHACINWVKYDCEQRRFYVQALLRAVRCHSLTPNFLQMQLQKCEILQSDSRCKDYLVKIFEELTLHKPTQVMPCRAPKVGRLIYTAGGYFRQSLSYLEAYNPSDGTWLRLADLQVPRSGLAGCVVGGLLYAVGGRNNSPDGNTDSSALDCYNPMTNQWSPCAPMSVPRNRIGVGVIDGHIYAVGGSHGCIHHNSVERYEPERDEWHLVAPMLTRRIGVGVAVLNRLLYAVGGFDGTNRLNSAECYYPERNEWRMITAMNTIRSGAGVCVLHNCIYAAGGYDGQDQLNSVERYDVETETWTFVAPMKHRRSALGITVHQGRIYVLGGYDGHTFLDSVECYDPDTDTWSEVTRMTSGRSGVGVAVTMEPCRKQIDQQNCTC

[17] = target: T7, Cytochrome P450 1A2 (Homo sapiens, UniProt P05177);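 note: PubChem cytochrome P450 panel assay, CYP1A2 panel member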
T7 sequence (P05177 whole entry): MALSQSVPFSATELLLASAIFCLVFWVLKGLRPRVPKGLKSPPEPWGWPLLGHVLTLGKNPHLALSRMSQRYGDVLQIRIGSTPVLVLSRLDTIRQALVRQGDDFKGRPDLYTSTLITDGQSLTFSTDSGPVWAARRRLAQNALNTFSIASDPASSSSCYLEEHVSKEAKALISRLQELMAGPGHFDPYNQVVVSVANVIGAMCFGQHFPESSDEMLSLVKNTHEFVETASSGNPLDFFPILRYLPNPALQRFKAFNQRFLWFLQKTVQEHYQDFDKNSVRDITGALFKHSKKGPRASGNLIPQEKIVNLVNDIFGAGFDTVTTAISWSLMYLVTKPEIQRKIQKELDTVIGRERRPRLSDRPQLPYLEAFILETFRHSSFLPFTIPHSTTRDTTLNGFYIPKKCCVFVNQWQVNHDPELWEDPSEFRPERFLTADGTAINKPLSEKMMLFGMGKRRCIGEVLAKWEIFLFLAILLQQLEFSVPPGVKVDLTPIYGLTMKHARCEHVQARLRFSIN

[18] = target: Cytochrome P450 2C9 (Homo sapiens, UniProt P11712)
Sequence of Cytochrome P450 2C9 (P11712 whole entry): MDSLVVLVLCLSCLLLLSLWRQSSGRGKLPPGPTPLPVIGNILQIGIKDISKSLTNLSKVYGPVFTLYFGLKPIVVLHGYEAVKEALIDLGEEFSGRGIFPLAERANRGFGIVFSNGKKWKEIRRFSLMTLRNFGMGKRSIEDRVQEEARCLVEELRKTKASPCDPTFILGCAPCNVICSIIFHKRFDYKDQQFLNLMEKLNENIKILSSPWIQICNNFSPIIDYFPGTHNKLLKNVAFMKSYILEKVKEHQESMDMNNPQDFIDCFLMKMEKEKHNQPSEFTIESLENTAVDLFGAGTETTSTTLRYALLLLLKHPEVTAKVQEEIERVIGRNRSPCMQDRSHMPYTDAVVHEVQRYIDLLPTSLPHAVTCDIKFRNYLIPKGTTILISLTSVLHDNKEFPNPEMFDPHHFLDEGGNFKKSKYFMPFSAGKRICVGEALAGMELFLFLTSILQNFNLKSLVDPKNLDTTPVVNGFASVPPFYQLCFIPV

[19] = Luminescence Cell-Based Dose Retest to Confirm Inhibitors of Cancer Stem Cells. [Related pubchem assays (depositor defined):AID2717, AID2721]; assay type: functional; conditions: Homo sapiens
[20] = target: Cytochrome P450 2C19 (Homo sapiens, UniProt P33261); test: Cytochrome panel assay with activity outcomes. Panel member name: p450-cyp2c19 Compounds with AC50 equal or less than 10 uM are considered active; assay type: functional; conditions: read-out: AC50
[21] = cytotoxicity in HMLE control line with eGFP shRNA, dose response, counter-screen for HMLE_sh_ECad selective toxicity project, cell-based, HMLE_sh_eGFP, luminescence (AID 463074); assay type: functional, Homo sapiens;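 note: HMLE human mammary epithelial cells expressing control shRNA against eGFP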
[22] = HEp-2 cell cytotoxicity, dose response, cytotoxicity control for RSV inhibitor project, HTS (AID 2410); assay type: functional; conditions: human respiratory syncytial virus
[23] = target: Cytochrome P450 2D6 (Homo sapiens, UniProt P10635);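 note: CYP2D6 member of a cytochrome P450 panel assay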
Sequence of Cytochrome P450 2D6 (P10635 whole entry): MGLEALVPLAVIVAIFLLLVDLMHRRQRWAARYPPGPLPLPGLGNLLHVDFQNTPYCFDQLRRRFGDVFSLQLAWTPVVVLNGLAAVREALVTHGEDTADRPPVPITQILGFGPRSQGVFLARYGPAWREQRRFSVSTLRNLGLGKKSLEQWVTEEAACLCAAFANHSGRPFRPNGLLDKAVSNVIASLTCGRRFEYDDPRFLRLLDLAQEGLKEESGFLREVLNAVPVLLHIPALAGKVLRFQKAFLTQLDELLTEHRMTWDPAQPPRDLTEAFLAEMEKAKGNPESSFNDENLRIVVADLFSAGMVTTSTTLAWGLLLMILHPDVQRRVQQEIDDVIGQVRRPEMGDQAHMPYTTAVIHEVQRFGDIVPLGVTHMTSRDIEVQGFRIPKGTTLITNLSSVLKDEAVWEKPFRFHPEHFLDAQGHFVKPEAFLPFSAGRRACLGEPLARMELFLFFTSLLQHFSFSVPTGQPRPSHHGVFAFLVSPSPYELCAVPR

Sequence of UDP-galactopyranose mutase (P9WIQ1 whole entry): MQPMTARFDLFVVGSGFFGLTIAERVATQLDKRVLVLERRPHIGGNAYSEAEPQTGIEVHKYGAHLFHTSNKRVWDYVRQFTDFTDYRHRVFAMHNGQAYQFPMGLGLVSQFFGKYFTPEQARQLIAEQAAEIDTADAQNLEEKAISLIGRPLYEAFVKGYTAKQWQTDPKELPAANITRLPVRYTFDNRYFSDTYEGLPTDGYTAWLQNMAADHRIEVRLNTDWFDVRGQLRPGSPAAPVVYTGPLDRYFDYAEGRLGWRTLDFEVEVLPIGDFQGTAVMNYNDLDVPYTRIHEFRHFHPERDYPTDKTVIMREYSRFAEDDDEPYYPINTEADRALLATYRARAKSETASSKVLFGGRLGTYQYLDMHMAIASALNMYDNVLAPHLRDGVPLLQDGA

O=C1c2cccc3c(N4CCCCC4)ccc(c23)C(=O)N1c1ccccn1
AC50 [1]: 58.7 µM (active)
EC50 [2]: 5.26 µM (inconclusive)
EC50 [3]: > 300 µM (inconclusive)

O=C(CCS(=O)(=O)c1ccc(Br)cc1)Nc1cc(F)ccc1F
IC50 [4]: 7.86 µM (active)
EC50 [5]: 2.47 µM (active)

O=C(O)c1cc(N2C(=O)C=CC2=O)cc(N2C(=O)C=CC2=O)c1
AC50 [6]: 6.9 µM (active)
IC50 [7]: 26.9 µM (inactive)
IC50 [8]: > 66.6 µM (inactive)
IC50 [9]: 12.3 µM (inactive)
IC50 [10]: 13.7 µM (active)
AC50 [11]: > 350 µM (inactive)
IC50 [12]: 19.7 µM (active)
IC50 [13]: 61.8 µM (inactive)
AC50 [14]: 94.5 µM (active)
IC50 [15]: 19.6 µM (active)
AC50 [16]: 19 µM (active)

O=C(c1cnccn1)N1CCC2(CCN(Cc3cc(C(F)(F)F)cc(C(F)(F)F)c3)CC2)CC1
AC50 [17]: inactive

O=C(Nc1cccc2ccccc12)c1nn(C23CC4CC(CC(C4)C2)C3)cc1Br
AC50 [18]: inconclusive
AC50 [19]: 1.83 µM (active)
AC50 [20]: 2.24 µM (inconclusive)
AC50 [21]: 40.6 µM (active)
CC50 [22]: 27.8 µM (active)
AC50 [23]: inconclusive
